{
  "source": "paper PMC7346179",
  "about": "“Fe Porphyrin-Based SOD Mimic and Redox-Active Compound, (OH)FeTnHex-2-PyP^4+, in a Rodent Ischemic Stroke (MCAO) Model: Efficacy and Pharmacokinetics as Compared to Its Mn Analogue, (H2O)MnTnHex-2-PyP^5+” (Antioxidants, 2020)",
  "key": {"[1]": {"test": "2-h PK study in rats that underwent MCAO", "type": "in vivo", "method": "Samples were prepared as described in [10] with modifications to accommodate the small tissue sizes and enhance the detection sensitivity. Quantitative liquid chromatography electrospray-ionization tandem mass spectrometry (LCMS/MS) analysis was performed on a Shimadzu 20A series HPLC (LC)-Applied Biosystems/MDS Sciex API 3200 QTrap or API 4000 QTrap tandem-mass spectrometer (MS/MS) as described earlier. The use of heptafluorobutyric acid (HFBA) mobile phase modifier as an ion-pairing agent increases the overall lipophilicity and volatility, which increases the retention and ionization efficiency of the analytes, affording an abundance of HFBA-associated ions. […] (OH)FeTnBuOE-2-PyP^4+ was prepared as described for other Fe(III) N-alkylpyridylporphyrins and analogous (H2O)MnTnBuOE-2-PyP^5+ [13, 16]. The solvents employed were: A = 95:5 H2O:MeCN (0.1% HFBA); B = MeCN (0.1% HFBA). […] With the chosen solvent system, all four atropoisomers collapsed into a single peak, enhancing the sensitivity of the method to as low as 0.5 nM (nanomoles per L of tissue homogenate). Analyses were performed using a Phenomenex Luna C18 guard cartridge (ID × L, 2 × 4 mm) only. […] Their structures are also shown. […] The response was calculated as the ratio between the standard peak area and the internal standard peak area. Another possible cause for the failure of therapeutics in stroke may be their slow accumulation in the brain, i.e., not being there in time to prevent the burst of reactive species and rapid activation of transcription factors, which perpetuate oxidative stress. We therefore conducted short-term 2-h PK to evaluate how fast post-MCAO our drug gets into the brain. Three rats per compound were subjected to 90 min of transient right MCAO as reported. The first dose of 0.225 mg/kg was given IV via the […] at 5 min after ischemia/reperfusion. The second dose of 0.225 mg/kg was given SC at 30 min after reperfusion. Blood was collected at 2 h and plasma harvested. Rats were perfused with heparin saline (2000 IU/500 mL) until no reddish fluid came out from the right atrium. Then, the liver, and left and right brain were collected and placed on dry ice and stored at -20 °C. Plasma, liver, and brain were analyzed by LCMS/MS."}, "mouse MCAO stroke model": {"system": "mouse MCAO stroke model", "test": "3-day mouse MCAO efficacy study", "type": "in vivo, mice", "method": "We performed a mouse MCAO study to define a dose of FeHex for a larger rat MCAO study. The 81 C57Bl/6J mice (8–10 weeks old) were subjected to 90 min of MCAO right hemisphere occlusion. Mice were fasted overnight before injury. They were under isoflurane anesthesia during ischemia, and the pericranial temperature was automatically controlled at 37 °C using a surface heating and cooling system. Ischemia was made through a small window on the left temporal bone, and the main trunk of the middle cerebral artery was transiently tied with a fine silk suture for 90 min. Muscle and skin layers were closed after ischemia/reperfusion. Mice were allowed to awake and survive for 3 days. […] Mice were sacrificed under deep anesthesia at 3 days post-ischemia/reperfusion. The brain was quickly frozen in −20 °C 2-methybutane and stored in the freezer for histological analysis. Liver and brain were taken for LCMS/MS analysis of the levels of FeHex. Body weight, rotarod performance, and Corner test were assessed before and 3 days after injury. Neurological deficit (neuroscore) and infarct volume were evaluated at 3 days after injury.\nThe rotarod test was performed on the day before surgery and 3 days after ischemia/reperfusion. Three trials were performed with a 15-min intra-trial rest. Mice were placed on the rod and then the machine was started. The speed was accelerated from 4 turns/min to 40 turns per min. The latency to fall from the rod was automatically recorded. The data are presented in % and are calculated as [(reading after injury)/(reading before surgery-baseline reading)] × 100. Neurological deficit was assessed based on the neuroscore system we previously used that includes the general status and motor and sensory functions. For the corner test, two clean boards were placed in “V” fashion at an angle of 30° relative to the walking axes and mice were left to walk in towards the apex of the “V”. Mice usually make left turns more frequently when injury is severe enough. The left turn was calculated from the number of left (L) turn/total turns (L + Right turn). Normal animals would have as many left as right turns (50% = normal). When all turns are to the left, the value at y-axis is 100%, the most severe score. Body weight loss is expressed as a difference in body weight at 3 days post-stroke minus body weight on the surgery day."}, "rat MCAO stroke model": {"system": "rat MCAO stroke model", "test": "7-day rat MCAO efficacy study", "type": "in vivo, rats", "conditions": "0.225 mg/kg twice per day 7 days", "method": "The 7-day rat MCAO study was done as described in [9]. The 250–275 g Wistar rats were used as another species is a requirement for preclinical stroke research. The duration of the right MCAO was 90 min. […] The first dose was given IV slowly via the […] at 5 min after ischemia/reperfusion. The following doses were given SC. At day 7 post-injury, a person blinded to the treatment groups assessed the neurological deficit and then brains were harvested for infarct volume measurements."}, "[2]": {"conditions": "cited from earlier work"}, "SOD-deficient E. coli": {"system": "SOD-deficient E. coli", "conditions": "higher than MnHex; cited from earlier work"}, "mice [3]": {"system": "mice", "conditions": "mouse, in vivo, cited from earlier work"}, "mice [4]": {"system": "mice", "conditions": "cited from earlier work"}, "[5]": {"conditions": "0.225 mg/kg IV twice daily 3 days"}},
  "data": [
    {"substance": "monohydroxo Fe(III) meso-tetrakis(N-n-hexylpyridinium-2yl)porphyrin [FeHex]", "values": [
      {"measurement": "level in injured (right) brain hemisphere", "setting": "[1]; rats after 90-min MCAO, 0.225 mg/kg IV + 0.225 mg/kg SC, 2 h after reperfusion", "value": "~ 55 nM"},
      {"measurement": "liver level relative to MnHex", "setting": "[1]; rats after MCAO, 2 h", "value": "lower in the liver"},
      {"measurement": "plasma level relative to MnHex", "setting": "[1]; rats after MCAO, 2 h", "value": "higher in plasma"},
      {"measurement": "neuroscore", "setting": "mouse MCAO stroke model; [5]", "value": "improved"},
      {"measurement": "p, Corner test vs vehicle", "setting": "mouse MCAO stroke model; [5]", "value": 0.09},
      {"measurement": "p, body weight change vs vehicle", "setting": "mouse MCAO stroke model; [5]", "value": 0.0347},
      {"measurement": "p, infarct volume vs vehicle", "setting": "mouse MCAO stroke model; [5]", "value": 0.48},
      {"measurement": "p, neuroscore vs vehicle", "setting": "mouse MCAO stroke model; [5]", "value": 0.047},
      {"measurement": "p, rotarod vs vehicle", "setting": "mouse MCAO stroke model; [5]", "value": 0.59},
      {"measurement": "body weights", "setting": "mouse MCAO stroke model; 0.225 mg/kg IV twice daily 3 days, from 90 min post ischemia/reperfusion", "value": "improved"},
      {"measurement": "infarct volume relative to vehicle", "setting": "mouse MCAO stroke model; 0.05, 0.225 and 1 mg/kg IV twice daily 3 days", "value": "No significant change"},
      {"measurement": "p, cortex infarct volume vs vehicle", "setting": "rat MCAO stroke model", "value": 0.48},
      {"measurement": "p, neuroscore vs vehicle", "setting": "rat MCAO stroke model", "value": 0.28},
      {"measurement": "p, subcortex infarct volume vs vehicle", "setting": "rat MCAO stroke model", "value": 0.11},
      {"measurement": "p, total infarct volume vs vehicle", "setting": "rat MCAO stroke model", "value": 0.31},
      {"measurement": "neurological deficit (neuroscore and infarct volume)", "setting": "rat MCAO stroke model; first dose IV, then SC", "value": "only slightly, but insignificantly, improved"},
      {"measurement": "log kcat(O2^•−), log of rate constant for catalysis of O2^•− dismutation", "setting": "[2]", "value": 7.53},
      {"measurement": "efficacy in SOD-deficient E. coli model relative to MnHex", "setting": "SOD-deficient E. coli", "value": "~ 2 orders of magnitude"},
      {"measurement": "blood pressure drop", "setting": "mice [3]; ip, 10 mg/kg", "value": "does not"},
      {"measurement": "arterial hypotension in experimental animals", "setting": "mice [3]", "value": "does not cause arterial hypotension"},
      {"measurement": "toxicity to mice relative to MnHex", "setting": "mice [4]", "value": "less toxic to mice"},
      {"measurement": "toxicity / death of mice", "setting": "mice [4]; mice, 5 mg/kg IP injection", "value": "no toxicity"}
    ]}
  ]
}
